Values joined by “and” are separate entries in the source; they are usually repeats but may differ in a detail not shown here. Equal entries are not always repeated. Inconclusive results and toxic doses are left out. Rule as the data show it: active = T/C of 150% or more; inactive = T/C below 125%.
Tested on: L1210 leukemia ip in BDF1 mice, survival T/C
Assay: NCI In Vivo Anticancer Drug Screen. Data for tumor model L1210 Leukemia (intraperitoneal) in B6D2F1 (BDF1) mice
Conditions: endpoint: mean survival time, higher = longer survival
Summary of the method: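 Tumor cells were implanted, animals were treated, and survival was followed. The result divides the treated measurement by the vehicle-control measurement.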

[1] = dose: 100.0 mg/kg/injection, schedule: Q04DX003 (ip), vehicle: Klucel (hydroxypropylcellulose) (HPC)
[2] = dose: 200.0 mg/kg/injection, schedule: Q04DX003 (ip), vehicle: Klucel (hydroxypropylcellulose) (HPC)
[3] = dose: 50.0 mg/kg/injection, schedule: Q01DX009 (ip), vehicle: saline with Tween-80
[4] = dose: 100.0 mg/kg/injection, schedule: Q01DX009 (ip), vehicle: saline with Tween-80

Measured: T/C

ClCc1ccc(CCl)cc1
inactive: dose: 56.25 mg/kg/injection, schedule: Q01DX009 (ip), vehicle: Klucel (hydroxypropylcellulose) (HPC) 101 % of control | dose: 112.5 mg/kg/injection, schedule: Q01DX009 (ip), vehicle: Klucel (hydroxypropylcellulose) (HPC) 98 % of control | dose: 150.0 mg/kg/injection, schedule: Q04DX003 (ip), vehicle: Klucel (hydroxypropylcellulose) (HPC) 105 % of control | dose: 225.0 mg/kg/injection, schedule: Q01DX009 (ip), vehicle: Klucel (hydroxypropylcellulose) (HPC) 87 % of control | dose: 225.0 mg/kg/injection, schedule: Q04DX003 (ip), vehicle: Klucel (hydroxypropylcellulose) (HPC) 97 % of control

N#CN1CCCC1
inactive: dose: 44.0 mg/kg/injection, schedule: Q01DX Z (ip), vehicle: saline 98 % of control | dose: 66.0 mg/kg/injection, schedule: Q01DX Z (ip), vehicle: saline 102 % of control

Cc1ccc(Cl)cc1NC(=O)c1cccc(C(=O)Nc2cc(Cl)ccc2C)c1
inactive: dose: 50.0 mg/kg/injection, schedule: Q01DX009 (ip), vehicle: Klucel (hydroxypropylcellulose) (HPC) 91 % of control | dose: 100.0 mg/kg/injection, schedule: Q01DX009 (ip), vehicle: Klucel (hydroxypropylcellulose) (HPC) 100 % of control | [1] 98 % of control | dose: 200.0 mg/kg/injection, schedule: Q01DX009 (ip), vehicle: Klucel (hydroxypropylcellulose) (HPC) 91 % of control | [2] 88 % of control

O=C(/C=C\C=C\c1ccccc1)c1ccc([N+](=O)[O-])cc1
inactive: dose: 100.0 mg/kg/injection, schedule: Q01DX001 (ip), vehicle: carboxymethylcellulose (CMC) 92 % of control and 89 % of control | dose: 100.0 mg/kg/injection, schedule: Q01DX009 (ip), vehicle: carboxymethylcellulose (CMC) 100 % of control and 89 % of control | dose: 100.0 mg/kg/injection, schedule: Q04DX002 (ip), vehicle: gum acacia 95 % of control and 99 % of control | dose: 100.0 mg/kg/injection, schedule: Q04DX003 (ip), vehicle: carboxymethylcellulose (CMC) 93 % of control and 86 % of control | dose: 200.0 mg/kg/injection, schedule: Q01DX001 (ip), vehicle: carboxymethylcellulose (CMC) 95 % of control and 89 % of control | dose: 200.0 mg/kg/injection, schedule: Q01DX009 (ip), vehicle: carboxymethylcellulose (CMC) 90 % of control | dose: 200.0 mg/kg/injection, schedule: Q04DX002 (ip), vehicle: gum acacia 101 % of control and 89 % of control | dose: 200.0 mg/kg/injection, schedule: Q04DX003 (ip), vehicle: carboxymethylcellulose (CMC) 86 % of control and 90 % of control | dose: 400.0 mg/kg/injection, schedule: Q01DX001 (ip), vehicle: carboxymethylcellulose (CMC) 92 % of control and 89 % of control | dose: 400.0 mg/kg/injection, schedule: Q01DX009 (ip), vehicle: carboxymethylcellulose (CMC) 96 % of control and 97 % of control | dose: 400.0 mg/kg/injection, schedule: Q04DX002 (ip), vehicle: gum acacia 92 % of control and 89 % of control | dose: 400.0 mg/kg/injection, schedule: Q04DX003 (ip), vehicle: carboxymethylcellulose (CMC) 90 % of control

CC1=CC(C)(C)NC(=S)N1CCO
inactive: dose: 74.0 mg/kg/injection, schedule: Q01DX Z (ip), vehicle: methylcellulose (MC) 91 % of control | dose: 100.0 mg/kg/injection, schedule: Q04DX002 (ip), vehicle: Klucel (hydroxypropylcellulose) (HPC) 104 % of control | dose: 200.0 mg/kg/injection, schedule: Q04DX002 (ip), vehicle: Klucel (hydroxypropylcellulose) (HPC) 107 % of control

O=C1CC2(CCCCC2)C(=O)N1
inactive: dose: 5.0 mg/kg/injection, schedule: Q04DX003 (ip), vehicle: saline with Tween-80 102 % of control | dose: 10.0 mg/kg/injection, schedule: Q04DX003 (ip), vehicle: saline with Tween-80 102 % of control | dose: 20.0 mg/kg/injection, schedule: Q04DX003 (ip), vehicle: saline with Tween-80 102 % of control

CCCSP(=[Se])(CCC)c1ccccc1 (stereo unspecified)
inactive: dose: 25.0 mg/kg/injection, schedule: Q04DX002 (ip), vehicle: saline with Tween-80 97 % of control | dose: 50.0 mg/kg/injection, schedule: Q04DX002 (ip), vehicle: saline with Tween-80 97 % of control | dose: 100.0 mg/kg/injection, schedule: Q04DX002 (ip), vehicle: saline with Tween-80 101 % of control

COc1c(O)c2c(c3cc(C(=O)N4CCc5c4c(O)c(OC)c4[nH]c(C(=O)N6CC7CC78C6=CC(=O)c6[nH]cc(C)c68)cc54)[nH]c13)CCN2C(N)=O (stereo unspecified)
inactive: dose: 6.25 micrograms/kg/injection, schedule: Q01DX009 (ip), vehicle: DMSO 124 % of control | dose: 12.5 micrograms/kg/injection, schedule: Q01DX009 (ip), vehicle: DMSO 111 % of control | dose: 100.0 micrograms/kg/injection, schedule: Q01DX009 (ip), vehicle: DMSO 96 % of control

CON(C)C(=O)CCN1CC1
inactive: dose: 10.0 mg/kg/injection, schedule: Q01DX009 (ip), vehicle: saline 97 % of control | dose: 20.0 mg/kg/injection, schedule: Q01DX009 (ip), vehicle: saline 94 % of control | dose: 20.0 mg/kg/injection, schedule: Q04DX003 (ip), vehicle: saline 100 % of control | dose: 40.0 mg/kg/injection, schedule: Q01DX009 (ip), vehicle: saline 97 % of control | dose: 40.0 mg/kg/injection, schedule: Q04DX003 (ip), vehicle: saline 100 % of control | dose: 80.0 mg/kg/injection, schedule: Q04DX003 (ip), vehicle: saline 104 % of control | dose: 100.0 mg/kg/injection, schedule: Q04DX003 (ip), vehicle: saline 94 % of control

Cc1cccc(OCCOC(=O)Nc2ccc(C)cc2[N+](=O)[O-])c1
inactive: [3] 97 % of control | [4] 87 % of control | dose: 100.0 mg/kg/injection, schedule: Q04DX003 (ip), vehicle: saline with Tween-80 103 % of control | dose: 200.0 mg/kg/injection, schedule: Q04DX003 (ip), vehicle: saline with Tween-80 94 % of control | dose: 400.0 mg/kg/injection, schedule: Q04DX003 (ip), vehicle: saline with Tween-80 99 % of control

O=C(O)COc1ccc(Cl)cc1Cc1ccccc1
inactive: dose: 100.0 mg/kg/injection, schedule: Q01DX001 (ip), vehicle: saline with Tween-80 98 % of control | dose: 200.0 mg/kg/injection, schedule: Q01DX001 (ip), vehicle: saline with Tween-80 96 % of control | dose: 400.0 mg/kg/injection, schedule: Q01DX001 (ip), vehicle: saline with Tween-80 117 % of control

COC(=O)c1ccccc1NC(=O)C(Br)C(Br)C(=O)O (stereo unspecified)
inactive: [3] 101 % of control | [4] 96 % of control | dose: 200.0 mg/kg/injection, schedule: Q01DX009 (ip), vehicle: saline with Tween-80 117 % of control

C[n+]1ccccc1/C=C/c1ccc2cccc(O)c2n1
inactive: dose: 2.0 mg/kg/injection, schedule: Q01DX015 (ip), vehicle: saline 95 % of control | dose: 4.0 mg/kg/injection, schedule: Q01DX015 (ip), vehicle: saline 95 % of control | dose: 8.0 mg/kg/injection, schedule: Q01DX015 (ip), vehicle: saline 94 % of control | dose: 16.0 mg/kg/injection, schedule: Q01DX015 (ip), vehicle: saline 101 % of control | dose: 32.0 mg/kg/injection, schedule: Q01DX015 (ip), vehicle: saline 97 % of control | dose: 75.0 mg/kg/injection, schedule: Q01DX001 (ip), vehicle: saline 102 % of control

CC1=CC2=C(C(=O)C1=O)C(C)CCC2C(C)C (stereo unspecified)
inactive: dose: 100.0 mg/kg/injection, schedule: Q01DX001 (ip), vehicle: saline 98 % of control | dose: 200.0 mg/kg/injection, schedule: Q01DX001 (ip), vehicle: saline 94 % of control

CN(C=O)c1cccc(C(=O)O)c1
inactive: dose: 100.0 mg/kg/injection, schedule: Q01DX001 (ip), vehicle: Klucel (hydroxypropylcellulose) (HPC) 96 % of control | [1] 103 % of control | dose: 200.0 mg/kg/injection, schedule: Q01DX001 (ip), vehicle: Klucel (hydroxypropylcellulose) (HPC) 94 % of control | [2] 103 % of control | dose: 400.0 mg/kg/injection, schedule: Q01DX001 (ip), vehicle: Klucel (hydroxypropylcellulose) (HPC) 91 % of control | dose: 400.0 mg/kg/injection, schedule: Q04DX003 (ip), vehicle: Klucel (hydroxypropylcellulose) (HPC) 97 % of control

O=CNc1ccc2c(c1)Cc1cc(Br)ccc1-2
inactive: dose: 50.0 mg/kg/injection, schedule: Q04DX003 (ip), vehicle: Klucel (hydroxypropylcellulose) (HPC) 97 % of control | [1] 101 % of control | [2] 97 % of control

From PubChem BioAssay AID248 (DTP/NCI, 2004)
